Laboratory results from patent US20070020244A1, “Fiber constructs and process of fiber fabrication” (The Johns Hopkins University, priority 2005, published 2007).

Test system: PC12 cells
Assay: PC12 bioassay of NGF released from fiber
Assay type: cell-based
Conditions: for time period of significant cell differentiation: supernatant with released NGF
Text: Nerve growth factor (NGF) was used as the model protein to investigate if incorporation of protein into the fibre compromises its bioactivity. The bioactivity of the released NGF was confirmed by its ability to differentiate PC12 cells, and in a dose-dependent manner. (FIG. 2C) At the increasing loading concentrations of NGF indicated, significant cell differentiation could be observed for time periods of up to 3 d, 5 d and 7 d, respectively. In all cases, the minimum concentration of NGF required to induce neurite outgrowth appeared to be in the region of 0.5 ng/mL, which agrees well with the literature. See, Physiological Reviews 60, 1284-1335 (1980).
Encapsulation of recombinant human β-NGF (MW 13,200, R&D Systems) was performed in the same way as described for BSA. Ring-spooled fibers were incubated in RPMI media over a period of 1 week, during which supernatants were collected for the PC12 bioassay and NGF ELISA (DuoSet ELISA Development System for human β-NGF, R&D Systems).

“NGF: Recombinant human β-NGF (MW 13,200, R&D Systems), model protein encapsulated in and released from the fiber” was tested, and the “minimum concentration of NGF required to induce neurite outgrowth” value (NGF released from fiber, PC12 cells) was about 0.5 ng/mL, the “time period of significant cell differentiation” value (loading concentration 66 ng/mL) was “up to 3 d” and the “time period of significant cell differentiation” value (loading concentration 86 ng/mL) was at most 5 days. The “time period of significant cell differentiation” value (loading concentration 112 ng/mL) was at most 7 days.
